# According to publication PMC7875539 (Science Advances, 2021):
# Legend:
# Settings in all cases: 100 mM KCl, 5 mM MgCl2, 20 mM Hepes pH 7.5, 25 °C; CBS domain nucleotide site
# TpCorC CBS domain [1] = molecular target: TpCorC CBS domain (Thermus parvatiensis, UniProt A0A109QFA5, T336I)
# TpCorC CBS domain [2] = molecular target: TpCorC CBS domain (Thermus parvatiensis, UniProt A0A109QFA5)
# TpCorC CBS domain [3] = molecular target: TpCorC CBS domain (Thermus parvatiensis, UniProt A0A109QFA5, Y255A)
# TpCorC CBS domain (Thermus parvatiensis, UniProt A0A109QFA5, Y255A), sequence (A0A109QFA5 202-361 Y255A limits assumed): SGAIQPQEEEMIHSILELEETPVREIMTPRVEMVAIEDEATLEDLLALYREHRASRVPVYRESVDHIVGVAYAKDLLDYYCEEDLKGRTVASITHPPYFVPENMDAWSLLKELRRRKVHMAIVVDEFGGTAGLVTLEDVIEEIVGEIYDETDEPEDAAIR
# TpCorC CBS domain (Thermus parvatiensis, UniProt A0A109QFA5, T336I), sequence (A0A109QFA5 202-361 T336I limits assumed): as the sequence (A0A109QFA5 202-361 Y255A limits assumed) above, with A54Y, T135I counted along it
# TpCorC CBS domain (Thermus parvatiensis, UniProt A0A109QFA5), sequence (A0A109QFA5 202-361 limits assumed): as the sequence (A0A109QFA5 202-361 Y255A limits assumed) above, with A54Y counted along it
structure (smiles),measurement,setting,value
Nc1ncnc2c1ncn2[C@@H]1O[C@H](COP(=O)(O)OP(=O)(O)OP(=O)(O)O)[C@@H](O)[C@H]1O [ATP],Kd,TpCorC CBS domain [1],9400 nM
same,Kd,TpCorC CBS domain [2],460 nM
same,Kd,TpCorC CBS domain [3],2800 nM
